Reference: US20150224164A1, “TREATMENT OF AUTISM SPECTRUM DISORDERS USING GLYCYL-L-2-METHYLPROLYL-L-GLUMATIC ACID” (Neuren Pharmaceuticals Limited, priority 2013, published 2015)
“Also recorded” adds a separate entry of the source. Where a SMILES comes first, the peptide text is derived from it.

Tests used:
[1] = Pharmacokinetics after intravenous bolus injection; format: in vivo, rat
Description: Adult male Wistar rats weighing between 180 and 240 g were used to determine the pharmacokinetics of GPE and G2MePE. To facilitate intravenous bolus injections and blood sampling, all rats were surgically implanted with an indwelling jugular venous cannula under halothane anesthesia three days before the experiment. Groups of six rats were given a single intravenous bolus injection of either 30 mg/kg GPE or 10 mg/kg G2MePE dissolved in 0.1M succinate buffer (pH 6.5). Blood samples (about 220 μl each) were collected into heparinized tubes containing Sigma protease inhibitor cocktail for mammalian tissues at 10 and 0 min before injection of either GPE or G2MePE, and 1, 2, 4, 8, 16, 32, 64 and 128 min after injection of either GPE or G2MePE. The samples were centrifuged at 3000 g for 15 min at 4° C. and the plasma removed and stored at −80° C. until extraction and assay by either radioimmunoassay (“RIA”) or reverse phase HPLC. The RIA and HPLC methods used were conventional.
The k and half-life (t1/2) were calculated from the slope of the linear regression line in the elimination phase of the semi-logarithmic plot of plasma concentration versus time as: Log C=−kt/2.3+log C0. Results were expressed as mean±standard error.

[2] = system: hippocampus slices from MeCP2 deficient mice; test: Hippocampal long-term potentiation, fEPSP slope (Example 8); format: in vivo, mouse; details: 20 mg/kg/day i.p. week 4 to 9; vs saline
Source text: MeCP2 deficient mice have been previously reported to suffer from functional and ultrastructural synaptic dysfunction, significant impairment of hippocampus-dependent memory and hippocampal long-term potentiation (LTP) (Moretti et al. The Journal of Neuroscience. 2006. 26(1):319-327). To test the effects of the G-2-MePE treatment on synaptic function in the RTT model we compared hippocampal LTP in both vehicle and G-2-MePE treated animals at 9 weeks of age. To do so, we measured the slope of the fEPSP as a % of baseline potential in neurons in slices of hippocampus from MeCP2 deficient mice treated with either saline or G-2-MePE (FIG. 23).

[3] = system: subjects with Rett Syndrome; test: Placebo controlled study in subjects with Rett Syndrome (Example 15); format: in vivo, human
Source text: Thirty subjects with Rett Syndrome are recruited. Subjects are female and aged between […] (Mean=12.1 SD=4.4). All subjects have an IQ<60 and mutations of the MECP2 gene. Subjects also show ether spike activity in the EEG or an increase in lower frequency bands of the EEG as detected by Fast Fourier Transform (FFT). Subjects are instructed that concomitant medications are to be stable for at least six weeks prior to study. Subjects receiving medication to treat signs of inattention are tested in the morning and instructed to take their medication in the afternoon. Subjects with QTc interval >451 msec are excluded.
The study is a randomized double blind placebo controlled parallel study with three doses of either placebo, 10 mg/kg T.I.D oral G-2-MePE for five days, or 30 mg/kg T.I.D. oral G-2-MePE.
Subjects are tested at baseline using the following instruments: The Rett Syndrome Natural History/Clinical Severity Scale, Aberrant Behavior Checklist Community Edition (ABC), Vinelands, Clinical Global Impression of Severity (CGI-S) and their carers completed the Caregiver Strain Questionnaire (CSQ).
Subjects are brought into clinic on an inpatient basis to enable initial baseline recordings of EEG, ECG and respiratory rate continuously for 24 hours using polysomnography technology. Hand movements are also recorded using the Q-Sensor™. Derived EEG measures include: spikes per unit time in the EEG, overall power of frequency bands of the EEG, QTc and heart rate variability (HRV), and respiratory irregularities.
Adverse events are also recorded using standard safety measures and the SMURF elicitation of adverse events
Statistically, the effect of treatment with G-2-MePE is analysed by conducting a repeated analysis of covariance (ANCOVA) on the effect of treatment on change from baseline scores.

[4] = system: Tbx1 heterozygous, Cntnap2 knockout, Slc9a6 knockout and fmr1 knockout mouse; test: Genetic models of ASD: Tbx1, Cntnap2, Slc9a6, fmr1 mice (Example 17); format: in vivo; details: 20 mg/kg/day i.p.
Description: Animals in each of the above models are generated in accordance with the methodology described in the cited literature. Wild type equivalents are also obtained for each genetic model. Animals in each model are divided into three groups (n=10 to n=20): placebo treated wild type mice, mutant G-2-MePE-treated group and mutant placebo-treated control group. The treatments are administered intraperitoneally: placebo (saline) or 20 mg/kg/day of G-2-MePE.

[5] = 30 mg/kg T.I.D. oral vs placebo

C[C@@]1(C(=O)N[C@@H](CCC(=O)O)C(=O)O)CCCN1C(=O)CN [Example G-2-MePE, Glycyl-L-2-methylprolyl-L-glutamic acid] (HELM PEPTIDE1{G.[C[C@@]1(C(=O)[*:2])CCCN1[*:1]].E}$$$$V2.0)
maximal plasma concentration relative to GPE ([1]; G-2-MePE 10 mg/kg vs GPE 30 mg/kg i.v.): about 4.8 times
t1/2 relative to GPE ([1]; i.v.): over 4 times
half-life ([1]; male, Wistar, rat, plasma, iv, single i.v. bolus, GPE 30 mg/kg, G-2-MePE 10 mg/kg): 20.7 ± 0.35 min
clearance ([1]; male, Wistar, rat, plasma, iv, single i.v. bolus, GPE 30 mg/kg, G-2-MePE 10 mg/kg, read-out: estimated clearance from plasma (converted)): 0.502 mL/min
first order rate constant ([1]; single i.v. bolus, GPE 30 mg/kg, G-2-MePE 10 mg/kg): 0.033 ± 0.001 min⁻¹
peak plasma concentration ([1]; single i.v. bolus, GPE 30 mg/kg, G-2-MePE 10 mg/kg, mean±standard error): 191 ± 16.1 µg/mL
slope of fEPSP (LTP) [2]: increased the slope
EEG spike activity [3, 5]: decreases spike activity
power of the delta band of the EEG [3, 5]: decreases the power of the delta band
subscales Nonverbal Communication, Epilepsy/Seizures, Hand use [3, 5]: significant effects
Serious Adverse Events ([3]; 10 or 30 mg/kg T.I.D. oral): No Serious Adverse Events
adverse events / tolerability ([3]; 10 or 30 mg/kg T.I.D. oral): no more adverse events than are present during treatment with placebo; also recorded: well tolerated
increases in QTC ([3]; 10 or 30 mg/kg T.I.D. oral): No instances of increases in QTC
respiratory rate or heart rate variability ([3]; 10 or 30 mg/kg T.I.D. oral): No effects
Rett Syndrome Natural History/Clinical Severity Score, overall ([3]; human, in vivo): no significant effect overall
spikes per unit time in the EEG, overall ([3]; overall treatment effect): significant overall reduction
total hand movements per twenty-four hour period (Q-Sensor) ([3]; significant for 30 mg/kg T.I.D.): reduces total hand movements
measures associated with the ASD phenotype [4]: significantly improves all measures
